Measured values published in the NIST ThermoML archive (doi:10.1021/je800395m).
“And” between values parts separate entries of the source, which are not always exact repeats. Equal entries are not always repeated.

Conditions: for Normal melting temperature: DTA

c1ccc2cc3cc4ccccc4cc3cc2c1 [2,3-benzanthracene]
Crystal 2
Conditions	vapor or sublimation pressure [kPa]
399 K	1.46e-05
404.4 K	2.1e-05
405.6 K	2.55e-05
409.5 K	3.39e-05
410.6 K	4.22e-05
414.6 K	5.42e-05
415.8 K	6.67e-05
416.6 K	6.39e-05
418.6 K	7.84e-05
419.6 K	8.46e-05
420.8 K	0.0001032
424.7 K	0.0001278
430.1 K	0.0002146

CC(C)[C@@H](C)/C=C/[C@@H](C)[C@H]1CC[C@H]2C3=CC=C4C[C@@H](O)CC[C@]4(C)[C@H]3CC[C@]12C [(22E)-ergosta-5,7,22-trien-3β-ol]
Crystal, Calculated from knudsen effusion weight loss
Conditions	vapor or sublimation pressure [kPa]
381.3 K	3.1e-06
383.8 K	4.4e-06
386.5 K	5.6e-06
394.4 K	1.42e-05
399.6 K	2.6e-05
402.3 K	3.54e-05
404.6 K	4.47e-05
407.2 K	5.91e-05
412.3 K	0.0001027

Conditions	Normal melting temperature [°C]
Crystal	158

CC[C@H](/C=C/[C@@H](C)[C@H]1CC[C@H]2[C@@H]3CC=C4C[C@@H](O)CC[C@]4(C)[C@H]3CC[C@]12C)C(C)C [(22E)-stigmasta-5,22-dien-3β-ol]
Crystal, Calculated from knudsen effusion weight loss
Conditions	vapor or sublimation pressure [kPa]
390.9 K	3.9e-06
392 K	4.6e-06
393.5 K	5.6e-06
396.1 K	8.2e-06
397.2 K	9.4e-06
398.7 K	1.15e-05
401.2 K	1.61e-05
403.9 K	2.2e-05
406.3 K	2.96e-05
408.9 K	4.11e-05
411.5 K	5.38e-05
414 K	7.23e-05
416.6 K	9.54e-05

Conditions	Normal melting temperature [°C]
Crystal	162

CC(C)CCC[C@@H](C)[C@H]1CC[C@H]2[C@@H]3CC=C4C[C@@H](O)CC[C@]4(C)[C@H]3CC[C@]12C [.DELTA.5-cholesten-3β-ol]
Crystal, Calculated from knudsen effusion weight loss
Conditions	vapor or sublimation pressure [kPa]
386.6 K	1.18e-05
392 K	2.13e-05
397.3 K	3.95e-05
403.1 K	7.14e-05
408.2 K	0.0001251
413.8 K	0.0002146

Conditions	Normal melting temperature [°C]
Crystal	148

c1ccc2cc3ccccc3cc2c1 [anthracene]
Crystal, Calculated from knudsen effusion weight loss
Conditions	vapor or sublimation pressure
319.6 K	1.3e-05 kPa and 1.29e-05 kPa
323.9 K	2.14e-05 kPa
326.8 K	3.04e-05 kPa
326.9 K	3e-05 kPa
331.7 K	5.29e-05 kPa
332.1 K	5.32e-05 kPa
332.2 K	5.41e-05 kPa
334 K	6.51e-05 kPa
334.2 K	6.59e-05 kPa
337 K	9.16e-05 kPa
339.4 K	0.0001131 kPa
342 K	0.0001487 kPa
349.7 K	0.0003165 kPa and 0.0003121 kPa
354.8 K	0.0005077 kPa

CC[C@H](CC[C@@H](C)[C@H]1CC[C@H]2[C@@H]3CC=C4C[C@@H](O)CC[C@]4(C)[C@H]3CC[C@]12C)C(C)C [β-sitosterol]
Crystal, Calculated from knudsen effusion weight loss
Conditions	vapor or sublimation pressure [kPa]
389.9 K	9.4e-06
392.4 K	1.27e-05
395.2 K	1.72e-05
397.7 K	2.23e-05
400.3 K	2.99e-05
405.6 K	5.2e-05
410.7 K	9.02e-05

Conditions	Normal melting temperature [°C]
Crystal	138
